Each structure is given as a SMILES string. Where two headings read alike, the source gives them in different places.

Among the data in patent publication US20150087627A1, “COMBINATION OF KINASE INHIBITORS AND USES THEREOF” (Intellikine LLC, priority 2011, published 2015) are IC50 values, retold here.

What all share (assay type): biochemical
Assay [1] deals with T1, PI3K α (p110α/p85α) (Homo sapiens, UniProt P42336).
T1 construct: purchased Upstate / Millipore Corporation
Nature of the assay: PI 3-Kinase (human) HTRF assay, PI3K α. Conditions: read-out: PI3K α IC50. On the technique in general: In TR-FRET formats the signal depends on donor and acceptor labels being close together.

Assay [2] concerns the target T2, mTOR (Homo sapiens, UniProt P42345).
T2 construct: purchased Invitrogen
Nature of the assay: mTOR kinase inhibition assay (radiometric or LanthaScreen TR-FRET). Conditions: read-out: mTORC IC50.
Procedure: The cross-activity or lack thereof of one or more compounds of the present invention against mTor can be measured according to any procedures known in the art or methods disclosed below.
The compounds described herein can be tested against recombinant mTOR (Invitrogen) in an assay containing 50 mM HEPES, pH 7.5, 1 mM EGTA, 10 mM MgCl2, 2.5 mM, 0.01% Tween, 10 μM ATP (2.5 μCi of μ-32P-ATP), and 3 μg/mL BSA. Rat recombinant PHAS-1/4EBP1 (Calbiochem; 2 mg/mL) is used as a substrate. Reactions are terminated by spotting onto nitrocellulose, which is washed with 1M NaCl/1% phosphoric acid (approximately 6 times, 5-10 minutes each). Sheets are dried and the transferred radioactivity quantitated by phosphorimaging.
For instance, one can use Invitrogen's LanthaScreen™ Kinase assay to test the inhibitors of mTOR disclosed herein. This assay is a time resolved FRET platform that measures the phosphorylation of GFP labeled 4EBP1 by mTOR kinase. The kinase reaction is performed in a white 384 well microtiter plate. The total reaction volume is 20 ul per well and the reaction buffer composition is 50 mM HEPES pH7.5, 0.01% Polysorbate 20, 1 mM EGTA, 10 mM MnCl2, and 2 mM DTT. In the first step, each well receives 2 ul of test compound in 20% dimethylsulphoxide resulting in a 2% DMSO final concentration. […] The plate is sealed and incubated for 1 hour at room temperature. […] The plate is sealed, incubated for 1 hour at room temperature, and then read on a plate reader set up for LanthaScreen™ TR-FRET. Data is analyzed and IC50s are generated using GraphPad Prism 5.

Assay [3] concerns the target T3, PI3K δ (Homo sapiens, UniProt O00329).
T3 construct: purchased Upstate / Millipore Corporation
Kind of assay: PI 3-Kinase (human) HTRF assay, PI3K δ. Conditions: read-out: PI3K δ IC50.

The target of assay [4] is T4, PI3K β (p110β/p85α) (Homo sapiens, UniProt P42338).
T4 construct: purchased Upstate / Millipore Corporation
T4 sequence (P42338 whole entry): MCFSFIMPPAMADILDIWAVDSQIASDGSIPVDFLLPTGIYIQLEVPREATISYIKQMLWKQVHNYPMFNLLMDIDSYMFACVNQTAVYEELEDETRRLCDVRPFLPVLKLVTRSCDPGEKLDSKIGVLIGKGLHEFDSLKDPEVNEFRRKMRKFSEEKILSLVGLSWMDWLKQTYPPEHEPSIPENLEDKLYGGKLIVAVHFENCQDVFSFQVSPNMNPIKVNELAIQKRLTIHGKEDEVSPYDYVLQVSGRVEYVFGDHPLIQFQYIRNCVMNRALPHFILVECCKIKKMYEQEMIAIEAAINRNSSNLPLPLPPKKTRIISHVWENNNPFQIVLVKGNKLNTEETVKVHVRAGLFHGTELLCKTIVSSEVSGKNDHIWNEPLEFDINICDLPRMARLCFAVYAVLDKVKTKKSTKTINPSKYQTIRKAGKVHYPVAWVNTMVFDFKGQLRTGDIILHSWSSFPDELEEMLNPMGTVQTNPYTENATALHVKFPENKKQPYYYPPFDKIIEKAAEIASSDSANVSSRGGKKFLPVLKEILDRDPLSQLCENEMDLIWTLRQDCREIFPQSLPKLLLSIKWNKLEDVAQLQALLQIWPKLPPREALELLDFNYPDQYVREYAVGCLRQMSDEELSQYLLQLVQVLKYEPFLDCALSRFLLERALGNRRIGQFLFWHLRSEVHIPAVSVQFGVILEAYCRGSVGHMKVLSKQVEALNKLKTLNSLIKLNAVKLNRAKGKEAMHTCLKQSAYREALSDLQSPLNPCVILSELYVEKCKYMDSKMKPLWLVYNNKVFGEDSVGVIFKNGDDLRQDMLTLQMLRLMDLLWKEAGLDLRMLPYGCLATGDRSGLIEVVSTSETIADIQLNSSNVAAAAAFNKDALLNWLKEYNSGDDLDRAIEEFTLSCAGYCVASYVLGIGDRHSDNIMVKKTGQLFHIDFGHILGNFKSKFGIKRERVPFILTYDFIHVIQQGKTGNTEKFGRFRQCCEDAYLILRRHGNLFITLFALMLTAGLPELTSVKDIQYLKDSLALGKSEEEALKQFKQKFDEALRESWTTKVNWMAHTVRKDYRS
T4 sequence (P27986 whole entry partner): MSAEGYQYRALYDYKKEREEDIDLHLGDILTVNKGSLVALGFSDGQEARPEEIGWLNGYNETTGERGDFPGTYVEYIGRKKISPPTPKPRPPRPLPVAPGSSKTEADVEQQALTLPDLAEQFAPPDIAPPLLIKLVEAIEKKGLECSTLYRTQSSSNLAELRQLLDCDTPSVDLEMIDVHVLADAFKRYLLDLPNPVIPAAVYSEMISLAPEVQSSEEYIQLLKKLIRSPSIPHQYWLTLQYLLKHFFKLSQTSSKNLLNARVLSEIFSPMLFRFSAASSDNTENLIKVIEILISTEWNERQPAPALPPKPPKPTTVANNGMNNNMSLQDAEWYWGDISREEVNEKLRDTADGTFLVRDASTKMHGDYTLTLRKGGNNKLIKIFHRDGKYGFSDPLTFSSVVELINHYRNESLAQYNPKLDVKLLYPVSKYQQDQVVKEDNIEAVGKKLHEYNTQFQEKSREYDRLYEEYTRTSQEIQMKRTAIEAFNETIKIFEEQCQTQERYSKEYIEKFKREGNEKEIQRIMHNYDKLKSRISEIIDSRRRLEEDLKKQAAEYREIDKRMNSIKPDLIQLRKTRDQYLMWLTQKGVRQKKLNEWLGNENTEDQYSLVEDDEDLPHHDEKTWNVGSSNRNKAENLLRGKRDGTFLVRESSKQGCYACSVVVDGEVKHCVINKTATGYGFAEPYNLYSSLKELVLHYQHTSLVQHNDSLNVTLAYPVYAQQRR
Nature of the assay: PI 3-Kinase (human) HTRF assay, PI3K β. Conditions: read-out: PI3K β IC50.

The target in assay [5] is T5, PI3K γ (p110γ) (Homo sapiens, UniProt P48736).
T5 construct: purchased Upstate / Millipore Corporation
T5 sequence (P48736 whole entry): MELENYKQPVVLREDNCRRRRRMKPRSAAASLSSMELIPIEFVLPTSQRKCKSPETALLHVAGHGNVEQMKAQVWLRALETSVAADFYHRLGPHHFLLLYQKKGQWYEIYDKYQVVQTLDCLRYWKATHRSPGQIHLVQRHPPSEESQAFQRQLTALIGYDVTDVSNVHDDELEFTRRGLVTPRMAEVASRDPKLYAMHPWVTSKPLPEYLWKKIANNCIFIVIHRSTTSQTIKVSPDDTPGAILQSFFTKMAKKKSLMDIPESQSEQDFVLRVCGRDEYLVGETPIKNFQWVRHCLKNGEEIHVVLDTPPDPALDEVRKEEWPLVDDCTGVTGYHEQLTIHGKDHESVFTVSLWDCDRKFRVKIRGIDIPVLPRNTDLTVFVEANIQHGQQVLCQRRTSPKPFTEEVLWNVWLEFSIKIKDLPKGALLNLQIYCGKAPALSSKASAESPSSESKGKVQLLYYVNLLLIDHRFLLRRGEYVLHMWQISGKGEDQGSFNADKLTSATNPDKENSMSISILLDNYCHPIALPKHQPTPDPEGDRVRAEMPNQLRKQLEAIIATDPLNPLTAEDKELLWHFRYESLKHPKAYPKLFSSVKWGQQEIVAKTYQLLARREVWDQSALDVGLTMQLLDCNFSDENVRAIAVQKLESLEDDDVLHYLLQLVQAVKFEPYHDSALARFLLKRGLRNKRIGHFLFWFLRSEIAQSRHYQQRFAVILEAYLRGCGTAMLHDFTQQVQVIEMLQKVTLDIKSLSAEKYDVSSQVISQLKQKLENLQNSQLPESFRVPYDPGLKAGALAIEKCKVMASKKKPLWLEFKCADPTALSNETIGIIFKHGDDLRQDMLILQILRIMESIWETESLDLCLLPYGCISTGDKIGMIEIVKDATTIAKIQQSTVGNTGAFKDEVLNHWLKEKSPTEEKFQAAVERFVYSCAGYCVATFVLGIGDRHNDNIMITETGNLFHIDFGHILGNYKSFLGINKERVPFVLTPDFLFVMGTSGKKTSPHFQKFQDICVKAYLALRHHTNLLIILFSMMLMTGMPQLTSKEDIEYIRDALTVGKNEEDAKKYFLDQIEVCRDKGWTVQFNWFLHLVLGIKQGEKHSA
Kind of assay: PI 3-Kinase (human) HTRF assay, PI3K γ. As to conditions: read-out: PI3K γ IC50.
Procedure: Briefly, the assay is a time resolved FRET assay that indirectly measures PIP3 product formed by the activity of a PI3-K. The kinase reaction is performed in a microtiter plate (e.g., a 384 well microtiter plate). The total reaction volume is approximately 20 ul per well. In the first step, each well receives 2 ul of test compound in 20% dimethylsulphoxide resulting in a 2% DMSO final concentration. […] The plate is sealed and incubated for 15 minutes at room temperature. […] The plate is sealed and incubated for 1 hour at room temperature. The reaction is stopped by adding 5 ul of Stop Solution per well and then 5 ul of Detection Mix is added per well. The plate is sealed, incubated for 1 hour at room temperature, and then read on an appropriate plate reader. Data is analyzed and IC50s are generated using GraphPad Prism 5.

T1 sequence (P42336 whole entry): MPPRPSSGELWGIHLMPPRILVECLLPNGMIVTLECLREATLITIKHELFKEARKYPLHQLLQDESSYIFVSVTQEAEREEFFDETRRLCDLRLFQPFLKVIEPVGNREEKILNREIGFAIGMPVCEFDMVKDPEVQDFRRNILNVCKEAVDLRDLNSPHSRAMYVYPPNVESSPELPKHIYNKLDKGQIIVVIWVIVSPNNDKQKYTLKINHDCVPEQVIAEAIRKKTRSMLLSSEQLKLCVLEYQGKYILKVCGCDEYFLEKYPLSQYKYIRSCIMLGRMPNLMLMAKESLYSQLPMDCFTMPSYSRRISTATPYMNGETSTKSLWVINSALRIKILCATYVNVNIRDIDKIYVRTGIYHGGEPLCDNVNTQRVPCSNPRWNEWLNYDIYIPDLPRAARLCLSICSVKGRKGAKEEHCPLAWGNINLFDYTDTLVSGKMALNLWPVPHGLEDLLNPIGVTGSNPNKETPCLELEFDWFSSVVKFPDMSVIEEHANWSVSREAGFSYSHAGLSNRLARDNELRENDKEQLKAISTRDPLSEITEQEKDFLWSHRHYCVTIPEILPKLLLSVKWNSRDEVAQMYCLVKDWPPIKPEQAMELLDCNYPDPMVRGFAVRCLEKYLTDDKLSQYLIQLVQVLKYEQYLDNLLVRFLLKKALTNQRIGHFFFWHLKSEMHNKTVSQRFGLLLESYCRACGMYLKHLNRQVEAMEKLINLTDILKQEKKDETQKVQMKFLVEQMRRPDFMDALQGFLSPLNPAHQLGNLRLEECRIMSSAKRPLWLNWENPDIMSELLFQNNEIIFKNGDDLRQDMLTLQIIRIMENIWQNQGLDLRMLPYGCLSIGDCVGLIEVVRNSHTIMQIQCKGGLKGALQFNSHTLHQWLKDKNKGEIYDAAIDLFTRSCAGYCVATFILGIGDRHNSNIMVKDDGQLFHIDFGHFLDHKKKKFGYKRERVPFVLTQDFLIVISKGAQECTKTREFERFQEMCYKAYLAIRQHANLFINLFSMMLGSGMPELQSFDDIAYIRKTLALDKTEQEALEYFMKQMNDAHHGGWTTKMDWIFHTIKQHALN
T1 sequence (P27986 whole entry partner): as the sequence (P27986 whole entry partner) above
T3 sequence (O00329 whole entry): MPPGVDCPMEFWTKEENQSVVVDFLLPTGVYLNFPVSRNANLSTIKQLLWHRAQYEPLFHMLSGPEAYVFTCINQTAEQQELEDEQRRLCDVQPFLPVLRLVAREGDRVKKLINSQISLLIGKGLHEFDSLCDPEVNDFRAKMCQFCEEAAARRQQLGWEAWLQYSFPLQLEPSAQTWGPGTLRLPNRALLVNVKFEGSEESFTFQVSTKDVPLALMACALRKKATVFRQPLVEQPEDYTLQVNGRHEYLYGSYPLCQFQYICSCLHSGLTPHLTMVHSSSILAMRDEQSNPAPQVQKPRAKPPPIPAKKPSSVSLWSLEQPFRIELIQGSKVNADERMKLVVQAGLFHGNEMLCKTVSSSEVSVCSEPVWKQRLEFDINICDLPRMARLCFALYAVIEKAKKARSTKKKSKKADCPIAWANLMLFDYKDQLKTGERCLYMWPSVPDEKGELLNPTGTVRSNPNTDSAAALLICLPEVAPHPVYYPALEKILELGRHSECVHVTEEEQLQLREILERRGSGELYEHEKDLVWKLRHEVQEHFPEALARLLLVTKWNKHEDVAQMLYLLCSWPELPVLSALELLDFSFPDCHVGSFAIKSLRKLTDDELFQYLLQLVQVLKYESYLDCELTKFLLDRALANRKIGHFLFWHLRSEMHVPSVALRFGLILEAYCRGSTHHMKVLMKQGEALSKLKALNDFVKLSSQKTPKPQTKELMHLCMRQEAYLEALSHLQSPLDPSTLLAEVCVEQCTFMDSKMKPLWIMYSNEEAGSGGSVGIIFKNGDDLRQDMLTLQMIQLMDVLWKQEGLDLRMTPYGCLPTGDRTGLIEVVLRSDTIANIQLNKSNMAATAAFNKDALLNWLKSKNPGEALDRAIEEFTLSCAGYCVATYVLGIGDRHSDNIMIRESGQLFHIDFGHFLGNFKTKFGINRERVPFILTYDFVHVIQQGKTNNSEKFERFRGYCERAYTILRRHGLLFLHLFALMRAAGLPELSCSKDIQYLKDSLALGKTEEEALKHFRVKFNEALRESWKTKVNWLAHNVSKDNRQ
T3 sequence (P27986 whole entry partner): as the sequence (P27986 whole entry partner) above

In general, IC50 refers to the point on the concentration scale where inhibition reaches its midpoint. On to `CCOC(=O)N1CCN(c2cnc3ccc(-c4ccc5oc(N)nc5c4)cc3n2)CC1` [Compound 119], for which the IC50 in assay [1] is less than 0.1 µM; in assay [2], less than 10 µM; in assay [3], less than 10 µM; in assay [4] it was less than 10 µM; in assay [5] it was less than 10 µM.

Turning to `Nc1nc2cc(-c3ccc4ncc(N5CC[C@H](O)C5)nc4c3)ccc2o1` [Compound 262], the IC50 in assay [1] is less than 0.1 µM; in assay [2], less than 10 µM; in assay [3] it was more than 10 µM; in assay [4], less than 1 µM; in assay [5], less than 1 µM.

Regarding `CN1CCN(C2CN(c3cnc4ccc(-c5ccc6oc(N)nc6c5)cc4n3)C2)CC1=O` [Compound 323], the IC50 was less than 0.1 µM in assay [1]; more than 10 µM in assay [2]; less than 10 µM in assay [3]; less than 10 µM in assay [4]; less than 1 µM in assay [5].

With `Nc1nc2cc(-c3ccc4ncc(N5CC(n6cccn6)C5)nc4c3)ccc2o1` [Compound 318], the IC50 in assay [1] is less than 0.1 µM; in assay [2], less than 1 µM; in assay [3] it was more than 10 µM; in assay [4] it was less than 10 µM; in assay [5], less than 1 µM.

Take `C[C@H]1CN(C2CN(c3cnc4ccc(-c5ccc6oc(N)nc6c5)cc4n3)C2)CCN1` [Compound 350]: the IC50 in assay [1] is less than 0.1 µM; in assay [2], more than 10 µM; in assay [3] it was less than 10 µM; in assay [4], less than 10 µM; in assay [5], more than 10 µM.

For `N#Cc1cnc2ccc(-c3ccc4oc(N)nc4c3)cc2c1-c1ccncc1` [Compound 46], the IC50 in assay [1], in assay [2], in assay [3] and in assay [5] was less than 0.1 µM in each case.

For the compound `COc1ncc(-c2ccc3ncc(C(=O)N4CCOCC4)n3c2)cc1NS(=O)(=O)c1ccc(F)cc1F` [Compound 417], the half-maximal inhibitory concentration (IC50) in assay [1] is less than 0.1 µM; in assay [2], less than 1 µM; in assay [3], less than 0.1 µM; in assay [4], less than 0.1 µM; in assay [5], less than 0.1 µM.

For the compound `CC(C)N1CCN(C2CN(c3cnc4ccc(-c5ccc6oc(N)nc6c5)nc4c3)C2)CC1` [Compound 623], the IC50 in assay [1] (Table 4 (PI3K α inhibitors)) was less than 0.1 µM; in assay [2] (Table 4 (PI3K α inhibitors)) it was more than 10 µM; in assay [3] (Table 4 (PI3K α inhibitors)), less than 1 µM; in assay [4] (Table 4 (PI3K α inhibitors)) it was less than 1 µM; in assay [5] (Table 4 (PI3K α inhibitors)), less than 10 µM.

For the compound `Nc1nc2cc(-c3ccc4ncc(N5CC(N6CCN(CCO)CC6)C5)nc4c3)ccc2o1` [Compound 333], the IC50 in assay [1] was less than 0.1 µM; in assay [2], more than 10 µM; in assay [3], less than 1 µM; in assay [4], less than 10 µM; in assay [5], less than 10 µM.

`C[C@@H]1CN(C(=O)C2CN(c3cnc4ccc(-c5ccc6oc(N)nc6c5)cc4n3)C2)CCN1` [Compound 267]: the IC50 is less than 0.1 µM in assay [1]; less than 10 µM in assay [2]; less than 1 µM in assay [3]; less than 10 µM in assay [4]; less than 1 µM in assay [5].

As to `C[C@@H]1CN(C2CN(c3cnc4ccc(-c5ccc6oc(N)nc6c5)nc4n3)C2)CCN1` [Compound 563], the IC50 in assay [1] (Table 4 (PI3K α inhibitors)) was less than 0.1 µM; in assay [2] (Table 4 (PI3K α inhibitors)), more than 10 µM; in assay [4] (Table 4 (PI3K α inhibitors)) it was more than 10 µM; in assay [5] (Table 4 (PI3K α inhibitors)) it was more than 10 µM.

Regarding `Nc1nc2cc(-c3ccc4ncc(N5CCC(n6ccnc6)CC5)nc4c3)ccc2o1` [Compound 345], the IC50 in assay [1] is less than 0.1 µM; in assay [2], less than 10 µM; in assay [3], less than 1 µM; in assay [4], less than 1 µM; in assay [5] it was less than 1 µM.

As to `Nc1nc2cc(-c3ccc4ncc(N5CC(N6CCNCC6)C5)nc4c3)ccc2o1` [Compound 326], the IC50 is less than 0.1 µM in assay [1]; more than 10 µM in assay [2]; less than 1 µM in assay [3]; less than 1 µM in assay [4]; less than 1 µM in assay [5].

Turning to `Nc1nc2cc(-c3ccc4ncc(N5CCC(N6CCOCC6)CC5)nc4c3)ccc2o1` [Compound 171], the IC50 was less than 0.1 µM in assay [1]; more than 10 µM in assay [2]; less than 1 µM in assay [3]; less than 1 µM in assay [4]; less than 1 µM in assay [5].

Consider `Nc1nc2cc(-c3ccc4ncc(N5CCN(C(=O)[C@@H]6CCCN6)CC5)nc4c3)ccc2o1` [Compound 121], for which the IC50 in assay [1] is less than 0.1 µM; in assay [2], more than 10 µM; in assay [3] it was less than 0.1 µM; in assay [4] it was less than 0.1 µM; in assay [5], less than 0.1 µM.

On to `CN1CCN([C@@H]2CCN(c3cnc4ccc(-c5ccc6oc(N)nc6c5)cc4n3)C2)CC1` [Compound 379], for which the IC50 was less than 0.1 µM in assay [1]; less than 10 µM in assay [2]; less than 10 µM in assay [3]; less than 1 µM in assay [4]; more than 10 µM in assay [5].

For `CN1CCN(C2CN(C(=O)c3cnc4ccc(-c5ccc6oc(N)nc6c5)cn34)C2)CC1` [Compound 303], the 50% inhibitory concentration (IC50) in assay [1] was less than 0.1 µM; in assay [2], less than 10 µM; in assay [3], less than 10 µM; in assay [4] it was more than 10 µM; in assay [5], more than 10 µM.

For the compound `Nc1nc2cc(-c3ccc4ncc(N5CCN(C(=O)C6(N)CC6)CC5)nc4n3)ccc2o1` [Compound 592], the IC50 in assay [1] (Table 4 (PI3K α inhibitors)) is less than 0.1 µM; in assay [2] (Table 4 (PI3K α inhibitors)), less than 10 µM; in assay [3] (Table 4 (PI3K α inhibitors)), less than 10 µM; in assay [4] (Table 4 (PI3K α inhibitors)), less than 10 µM; in assay [5] (Table 4 (PI3K α inhibitors)), less than 0.1 µM.

Take `Nc1nc2cc(-c3ccc4ncc(N5CC(N6CCN(C7CC7)CC6)C5)nc4c3)ccc2o1` [Compound 313]: the IC50 in assay [1] was less than 0.1 µM; in assay [2], less than 10 µM; in assay [3], less than 10 µM; in assay [4], less than 10 µM; in assay [5] it was less than 10 µM.

For the compound `Nc1nc2cc(-c3cccc4[nH]nc(N)c34)ccc2o1` [Compound 236], the IC50 in assay [1], in assay [2], in assay [4] and in assay [5] was more than 10 µM each time.

Regarding `CN1CCN(C2CN(c3cnc4ccc(-c5ccc6oc(N)nc6c5)nc4c3)C2)CC1=O` [Compound 615], the IC50 in assay [1] (Table 4 (PI3K α inhibitors)) was less than 0.1 µM; in assay [2] (Table 4 (PI3K α inhibitors)), less than 10 µM; in assay [3] (Table 4 (PI3K α inhibitors)), less than 1 µM; in assay [5] (Table 4 (PI3K α inhibitors)), less than 0.1 µM.

Turning to `CC(C)Oc1nc(-c2ccc3oc(N)nc3c2)cnc1N` [Compound 237], the IC50 is less than 10 µM in assay [1], less than 1 µM in assay [2], less than 10 µM in assay [4] and less than 10 µM in assay [5].

As for `Nc1nc2cc(-c3ccc4ncn(C5CCOCC5)c(=O)c4c3)ccc2o1` [Compound 55], the IC50 was less than 1 µM in assay [1], more than 10 µM in assay [2], more than 10 µM in assay [3] and more than 10 µM in assay [5].

In the case of `CN1CCN(C(=O)c2cnc3ccc(-c4ccc5oc(N)nc5c4)cn23)CC1` [Compound 44], the IC50 in assay [1] is less than 0.1 µM; in assay [2] it was less than 10 µM; in assay [3], less than 10 µM; in assay [5] it was less than 10 µM.

For `Cc1nccn1C1CN(c2cnc3ccc(-c4ccc5oc(N)nc5c4)nc3c2)C1` [Compound 614], the IC50 in assay [1] (Table 4 (PI3K α inhibitors)) was less than 0.1 µM; in assay [2] (Table 4 (PI3K α inhibitors)), more than 10 µM; in assay [3] (Table 4 (PI3K α inhibitors)) it was less than 1 µM; in assay [5] (Table 4 (PI3K α inhibitors)) it was less than 0.1 µM.

Turning to `Nc1ncc2cc(-c3ccc4nccc(-c5ccncc5)c4c3)ccc2n1` [Compound 9], the IC50 in assay [1] was less than 1 µM; in assay [2] it was more than 10 µM; in assay [4], less than 10 µM; in assay [5] it was less than 1 µM.

For `Nc1nc2cc(-c3ccc4ncc(N5CC(N6CCN(CCO)CC6)C5)cc4n3)ccc2o1` [Compound 616], the IC50 is less than 0.1 µM in assay [1] (Table 4 (PI3K α inhibitors)), more than 10 µM in assay [2] (Table 4 (PI3K α inhibitors)), less than 1 µM in assay [3] (Table 4 (PI3K α inhibitors)) and less than 1 µM in assay [5] (Table 4 (PI3K α inhibitors)).

For `Nc1nc2cc(-c3ccc4ncc(N5CC(N6CC[C@H](O)C6)C5)nc4c3)ccc2o1` [Compound 322], the IC50 in assay [1] is less than 0.1 µM; in assay [2], more than 10 µM; in assay [4] it was less than 1 µM; in assay [5] it was less than 1 µM.

Regarding `Cn1cc(-c2ccnc3ccc(-c4ccc5oc(N)nc5c4)cc23)cn1` [Compound 26], the IC50 was less than 0.1 µM in assay [1], less than 1 µM in assay [2], less than 0.1 µM in assay [3] and less than 0.1 µM in assay [5].

For the compound `C[C@H]1CN(c2cnc3ccc(-c4ccc5oc(N)nc5c4)nc3c2)CCN1` [Compound 598], the IC50 in assay [1] (Table 4 (PI3K α inhibitors)) is less than 0.1 µM; in assay [2] (Table 4 (PI3K α inhibitors)), more than 10 µM; in assay [4] (Table 4 (PI3K α inhibitors)), less than 0.1 µM; in assay [5] (Table 4 (PI3K α inhibitors)), less than 1 µM.

Consider `CC1(C)CN(C2CN(c3cnc4ccc(-c5ccc6oc(N)nc6c5)nc4c3)C2)CCN1` [Compound 609], for which the IC50 in assay [1] (Table 4 (PI3K α inhibitors)) is less than 0.1 µM; in assay [2] (Table 4 (PI3K α inhibitors)), more than 10 µM; in assay [3] (Table 4 (PI3K α inhibitors)), less than 1 µM; in assay [5] (Table 4 (PI3K α inhibitors)), less than 1 µM.

Consider `Nc1nc2cc(-c3ccc4nccn4c3)ccc2o1` [Compound 40], for which the IC50 was less than 10 µM in assay [1], less than 10 µM in assay [2], more than 10 µM in assay [3] and less than 10 µM in assay [5].

As to `Nc1nc2cc(-c3ccc4nc(N)oc4c3)ccc2o1` [Compound 241], the IC50 in assay [1] is less than 1 µM; in assay [2], less than 10 µM; in assay [3], less than 1 µM; in assay [5] it was less than 0.1 µM.

As to `Nc1nc2cc(-c3ccc4ncc(N5CC(N6CCOCC6)C5)cc4n3)ccc2o1` [Compound 604], the IC50 in assay [1] (Table 4 (PI3K α inhibitors)) was less than 0.1 µM; in assay [2] (Table 4 (PI3K α inhibitors)) it was more than 10 µM; in assay [5] (Table 4 (PI3K α inhibitors)), less than 1 µM.

Consider `Nc1ncnc2ccc(-c3ccc4nccc(-c5ccncc5)c4c3)cc12` [Compound 8], for which the IC50 in assay [1] is less than 10 µM; in assay [2] it was more than 10 µM; in assay [4] it was more than 10 µM; in assay [5], less than 1 µM.
